Assay results as given in patent US5498632A, “Esters of acyl carnitines with long-chain aliphatic alcohols and pharmaceutical compositions containing same having antibacterial activity” (Sigma-Tau Industrie Farmaceutiche Riunite S.p.A., priority 1992, dated 1996).

Tests used:
Assay type in all cases: cell-based
[1] = tested on: Proteus mirabilis (32); assay: MIC in broth, Gram- strains; settings: 18 h, read-out: Minimal Inhibitory Concentration (MIC)
Outline: (§1)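 Broth microdilution in Mueller-Hinton broth with serial two-fold compound dilutions. Inoculum from overnight culture standardized to 0.5 McFarland, final 5.0×10^4 CFU/ml. MIC read after 18 h at 37 °C.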

[2] = tested on: Enterobacter aerogenes (UM); assay: MIC in broth, Gram- strains; settings: Klebsiella aerogenes, 18 h, read-out: Minimal Inhibitory Concentration (MIC)
Outline: as §1

[3] = tested on: Pseudomonas aeruginosa (10 E); assay: MIC in broth, Gram- strains; settings: 18 h, read-out: Minimal Inhibitory Concentration (MIC)
Outline: as §1

[4] = tested on: Pseudomonas aeruginosa (3 E); assay: MIC in broth, Gram- strains; settings: 18 h, read-out: Minimal Inhibitory Concentration (MIC)
Outline: as §1

[5] = tested on: Klebsiella oxytoca (552); assay: MIC in broth, Gram- strains; settings: 18 h, read-out: Minimal Inhibitory Concentration (MIC)
Outline: as §1

[6] = tested on: Salmonella typhi (J); assay: MIC in broth, Gram- strains; settings: Salmonella enterica, 18 h, read-out: Minimal Inhibitory Concentration (MIC)
Outline: as §1

[7] = tested on: Proteus vulgaris (UM); assay: MIC in broth, Gram- strains; settings: 18 h, read-out: Minimal Inhibitory Concentration (MIC)
Outline: as §1

[8] = tested on: Klebsiella pneumoniae (7823); assay: MIC in broth, Gram- strains; settings: 18 h, read-out: Minimal Inhibitory Concentration (MIC)
Outline: as §1

[9] = tested on: Escherichia coli (92 F); assay: MIC in broth, Gram- strains; settings: 18 h, E. coli (92 F), read-out: Minimal Inhibitory Concentration (MIC)
Outline: as §1

[10] = tested on: Proteus morganii (D.S.); assay: MIC in broth, Gram- strains; settings: Morganella morganii, 18 h, read-out: Minimal Inhibitory Concentration (MIC)
Outline: as §1

[11] = tested on: Serratia marcescens (A/1); assay: MIC in broth, Gram- strains; settings: 18 h, read-out: Minimal Inhibitory Concentration (MIC)
Outline: as §1

[12] = tested on: Salmonella typhimurium (D.S.); assay: MIC in broth, Gram- strains; settings: Salmonella enterica, 18 h, read-out: Minimal Inhibitory Concentration (MIC)
Outline: as §1

[13] = tested on: Escherichia coli (76 F); assay: MIC in broth, Gram- strains; settings: 18 h, E. coli (76 F), read-out: Minimal Inhibitory Concentration (MIC)
Outline: as §1

[14] = tested on: Escherichia coli (R 57B); assay: MIC in broth, Gram- strains; settings: 18 h, E. coli (R 57B), read-out: Minimal Inhibitory Concentration (MIC)
Outline: as §1

[15] = tested on: Klebsiella aerogenes (SH 1082); assay: MIC in broth, Gram- strains; settings: 18 h, read-out: Minimal Inhibitory Concentration (MIC)
Outline: as §1

[16] = tested on: Helicobacter pylori NCTC 11637; assay: In vitro synergistic effect of ST 722 and Bismuth Subcitrate
Method: CBS from the commercially available product De-Nol® (Gist-Brocades, Netherland), i.e. ammonium and potassium double salt of colloidal bismuth citrate hydroxide, was utilized by preparing a suspension of 10 mg/ml CBS in 1N NaOH. After diluting 1:10 in Mueller-Hinton broth, 8 serial two-fold dlitutions in the same medium were made. The compound ST 722 was dissolved in Mueller-Hinton broth at a starting concentration of 100 mcg/ml, then 7 serial two-fold dilutions were carried out.
The "in vitro" anti-Helicobacter activity of both CBS and ST 722, alone and in association, was tested by utilizing the strain H. pylori NCTC 11637.
A 24-hour culture of Helicobacter in Columbia agar medium supplemented with Vitox (Oxoid) and 7% defribinated horse blood is washed with Mueller-Hinton broth.
Following densitometric evaluation (reading at 600 nm), the bacterial suspension was adjusted to a concentration of 1.0×10^9 cells/ml and 0.2-ml volumes were distributed into each well of a 96-well U-bottomed microtiter plate.
A 1-μl volume of this bacterial suspension was then distributed, by means of a Steers-type replicator apparatus, into the wells of microtiter plates containing the substances, either alone or in association. The final bacterial inoculum contained approximately 1.0×10^6 bacterial cells.
The procedure described by Garrod et al. (GARROD, L. P. and WATERWORTH, P. M., 1962. Methods of testing combined antibiotic bactericidal action and the significance of the results. J. Clin. Pathol. 15, 328-338) was utilized.
Briefly, 250-μl volumes of each test substance, either alone or admixed in all the possible combinations, were additioned to 4.5 ml of Mueller-Hinton agar containing 5% defribinated horse serum. Volumes of 0.2 ml/well of the resulting solution were distributed into the wells of a microtiter plate, then seeded with 1 μl/well of a standardized bacterial suspension, and finally incubated for 48 hours at 37° C. in a 10% CO2 atmosphere.
In order to evaluate the results obtained with combinations of antibiotics it was utilized the method (KROGSTAD, D. J. and MOELLERING, R. C., 1983. Antimicrobial combinations. In LORIAN, V., Antibiotics in Laboratory Medicine, 15, 537-549) based on the calculation of the Fractional Inhibitory Concentration Index (FIC index).
FIC index is calculated as follows: [formula] Where (A) is the MIC of substance A in the association and (MICA) is the […] of the organism to substance A alone. FICA is the fractional inhibitory concentration of substance A. (B), (MICB) and FICB are defined in the same fashion for substance B.
Based on these criteria, the effect of a combination of 2 substances is referred to as 'synergistic" when the FIC index is ≤0.5, "additive" with a FIC index=1, and "antagonist" when FIC index is >1.

CCCCCCCCCCCOC(=O)CC(C[N+](C)(C)C)OC(=O)CC(C)C [ST 722, Isovaleryl-L-Carnitine Undecyl Ester Chloride]
MIC [1]: > 100 µg/mL | MIC [2]: 25 µg/mL | MIC [3]: 50 µg/mL | MIC [4]: 50 µg/mL | MIC [5]: 12.5 µg/mL | MIC [6]: 25 µg/mL | MIC [7]: 50 µg/mL | MIC [8]: 12.5 µg/mL | MIC [9]: 25 µg/mL | MIC [10]: 100 µg/mL | MIC [11]: 50 µg/mL | MIC [12]: 25 µg/mL | MIC [13]: 25 µg/mL | MIC [14]: 25 µg/mL | MIC [15]: 25 µg/mL | MIC ([16]; Helicobacter pylori, NCTC11637, substance alone, H. pylori NCTC 11637, 48 hours, read-out: MIC): 1.56 µg/mL | FIC (fractional inhibitory concentration) ([16]; ST 722 with CBS): 0.12
